Reference: patent publication US8609719B2, “Propargylated aminoindans, processes for preparation, and uses thereof” (priority 2006, dated 2013)
Counter-ions that a name gives are not always drawn. Like-named read-outs stand apart in the source and are kept apart here.

Experiments:
MAO = MAO inhibition in rat organs after chronic administration, overall conclusion; type: in vivo; conditions: rats, P.O. daily for seven days
Description: (§1) 30 rats were separated randomly into 5 testing groups of 6 rats each. Group 1 was the control group to which no drug was administered. Ethyl-hydroxymethyl-carbamic acid 3-R-(prop-2-ynylamino)-indan-5-yl ester fumarate (2:1) was administered to groups 2, 3, 4 in dosages of 150, 75, and 37.5 μmol/kg respectively, daily, perorally (“P.O.”) for seven consecutive days. Water was used as a vehicle.
(§2) Rats were sacrificed, out of sight of the other rats, 2 hours after the last administration. Brains were removed into Petri dishes on ice, the cerebellums were […], and the brains cut into halves for analysis. Livers and intestines were removed for MAO determination. Organs were homogenated for enzyme inhibition analysis.
(§3) The MAO inhibition after administration of ethyl-hydroxymethyl-carbamic acid 3-R-(prop-2-ynylamino)-indan-5-yl ester fumarate (2:1) in various organs is listed in Table 4 calculated in percent relative to the control group.

MAO-B [1] = molecular target: T1, MAO-B (Rattus norvegicus, UniProt P19643); test: MAO-B inhibition in rat organs after chronic P.O. administration; type: in vivo; conditions: po, 7 days, 2 hours after last dose; for inhibition at 37.5 µmol/kg: 37.5 μmol/kg P.O. daily; for inhibition at 75 µmol/kg: 75 μmol/kg P.O. daily; for inhibition at 150 µmol/kg: 150 μmol/kg P.O. daily
T1 construct: from tissue; host or cells: brain, liver and intestine (duodenum) of dosed rats
T1 sequence (P19643 1-520): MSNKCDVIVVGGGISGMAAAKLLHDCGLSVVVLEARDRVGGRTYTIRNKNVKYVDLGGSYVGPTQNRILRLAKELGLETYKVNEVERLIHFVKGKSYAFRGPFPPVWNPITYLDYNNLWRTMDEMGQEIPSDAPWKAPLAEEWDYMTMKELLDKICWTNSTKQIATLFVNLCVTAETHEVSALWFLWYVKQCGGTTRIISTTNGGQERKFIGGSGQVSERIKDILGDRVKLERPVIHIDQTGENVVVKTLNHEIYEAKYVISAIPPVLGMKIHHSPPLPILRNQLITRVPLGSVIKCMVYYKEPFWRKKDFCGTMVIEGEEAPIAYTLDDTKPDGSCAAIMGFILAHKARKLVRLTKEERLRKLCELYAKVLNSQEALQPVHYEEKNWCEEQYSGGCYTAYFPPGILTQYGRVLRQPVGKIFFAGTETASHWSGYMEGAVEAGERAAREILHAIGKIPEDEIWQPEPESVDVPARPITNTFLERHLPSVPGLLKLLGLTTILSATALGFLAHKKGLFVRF
Description: as §1, §2, §3

[2] = Pharmacokinetic analysis of ladostigil and metabolites in Alzheimer's disease patients; conditions: human, in vivo, 100 mg; for Cmax / AUC / AUC(0-t): after ladostigil tartrate 100 mg twice daily; for concentration at 12 h: mean concentration at pre-dose, 12 hours after the previous dose of ladostigil tartrate; for AUC: AUC (M)
MAO-B [3] = molecular target: T1, MAO-B; test: Inhibition of MAO activity in vitro (PEA substrate); type: biochemical; conditions: rat brain homogenate; PEA 10 μM; 60 minutes pre-incubation at 37° C.; read-out: IC50 for MAO-B inhibition
Description: The MAO enzyme source was a homogenate of rat brain in 0.3M sucrose. The homogenate was diluted appropriately, and pre-incubated with serial dilutions of test compounds—diluted in phosphate buffer containing clogyline when 2-phenylethylamine (PEA) is the substrate, and diluted in phosphate buffer containing selegiline when 5-hydroxytryptamine (5-HT) is the substrate—for 60 minutes at 37° C. 14C-Labeled substrates (PEA for MAO-B determination and 5-HT for MAO-A determination) were then added, and the incubation continued for a further 20 minutes (PEA) or 30 minutes (5-HT). Substrate concentrations used were 10 μM (PEA) and 100 uM (5-HT). Enzyme concentration was chosen so that not more than 10% of the substrate was metabolized during the course of the reaction. Deaminated products were extracted into toluene-ethyl acetate (1:1 v/v) containing 0.4% (w/v) 2,5-diphenyloxazole (ppo) prior to determination by liquid scintillation counting. Radioactivity in the eluate indicated the production of neutral and acidic metabolites formed as a result of MAO activity. Activity of MAO in the sample was expressed as a percentage of control activity in the absence of inhibitor after subtraction of appropriate blank values. The activity determined using PEA as substrate is referred to as MAO-B, and that determined using 5-HT as MAO-A.
Concentrations of each inhibitor producing 50% inhibition of substrate metabolism (IC50) were calculated from the inhibition curves, and are shown in Table 1.

[4] = read-out: Brain MAO-B inhibition relative to control
[5] = read-out: Duodenum MAO-B inhibition relative to control
[6] = read-out: Liver MAO-B inhibition relative to control

With `C#CCN[C@@H]1CCc2ccc(OC(=O)N(CC)CO)cc21` [R-HCPAI, Ethyl-hydroxymethyl-carbamic acid 3-R-(prop-2-ynylamino)-indan-5-yl ester fumarate (2:1)] as the compound, how does the “organ selectivity of MAO inhibition, in words” value (MAO) read?
Its value is “brain-selective MAO inhibition”.

What about the inhibition at 37.5 µmol/kg (MAO-B [1]; [4]) of the same compound?
The inhibition at 37.5 µmol/kg was 17%.

And the inhibition at 37.5 µmol/kg (MAO-B [1]; [5])?
Its inhibition at 37.5 µmol/kg is 7%.

What about the inhibition at 37.5 µmol/kg (MAO-B [1]; [6]) of the same compound?
The inhibition at 37.5 µmol/kg was 15%.

And the inhibition at 75 µmol/kg (MAO-B [1]; [4])?
Its inhibition at 75 µmol/kg is 62%.

What about the inhibition at 75 µmol/kg (MAO-B [1]; [5]) of the same compound?
Its inhibition at 75 µmol/kg is 31%.

And the inhibition at 75 µmol/kg (MAO-B [1]; [6])?
Its inhibition at 75 µmol/kg is 18%.

What about the inhibition at 150 µmol/kg (MAO-B [1]; [4]) of the same compound?
Its inhibition at 150 µmol/kg is 83%.

What about the inhibition at 150 µmol/kg (MAO-B [1]; [5]) of the same compound?
Its inhibition at 150 µmol/kg is 35%.

What about the inhibition at 150 µmol/kg (MAO-B [1]; [6]) of the same compound?
Its inhibition at 150 µmol/kg is 34%.

And the half-life ([2]; both)?
Its half-life is 1.03 h.

What about the Cmax ([2]; both, Cmax (M), mean, mean of patients, maintenance analysis Week 4) of the same compound?
The Cmax was 3.63e-06 M.

And the Cmax ([2]; both, Cmax (T), mean, mean of patients, termination analysis Week 9)?
The Cmax was 3.3e-06 M.

And the concentration at 12 h ([2]; both, Cmin (M), mean of patients, maintenance analysis Week 4)?
Its concentration at 12 h is 2.32e-08 M.

And the concentration at 12 h ([2]; both, Cmin (T), mean of patients, termination analysis Week 9)?
Its concentration at 12 h is 1.37e-08 M.

And the AUC ([2]; Patient 1, maintenance analysis Week 4)?
The AUC was 1660 ng·h/mL.

And the AUC ([2]; Patient 2, maintenance analysis Week 4)?
The AUC was 600 ng·h/mL.

And the AUC ([2]; Patient 3, maintenance analysis Week 4)?
Its AUC is 2290 ng·h/mL.

What about the AUC ([2]; Patient 4, maintenance analysis Week 4) of the same compound?
The AUC was 2150 ng·h/mL.

What about the AUC ([2]; Patient 5, maintenance analysis Week 4) of the same compound?
The AUC was 1700 ng·h/mL.

And the AUC ([2]; Patient 6, maintenance analysis Week 4)?
Its AUC is 1890 ng·h/mL.

What about the AUC ([2]; Patient 7, maintenance analysis Week 4) of the same compound?
The AUC was 519 ng·h/mL.

What about the AUC ([2]; Patient 8, maintenance analysis Week 4) of the same compound?
Its AUC is 1510 ng·h/mL.

And the AUC(0-t) ([2]; Patient 1, termination analysis Week 9)?
The AUC(0-t) was 1300 ng·h/mL.

What about the AUC(0-t) ([2]; Patient 2, termination analysis Week 9) of the same compound?
The AUC(0-t) was 3100 ng·h/mL.

And the AUC(0-t) ([2]; Patient 3, termination analysis Week 9)?
Its AUC(0-t) is 2520 ng·h/mL.

What about the AUC(0-t) ([2]; Patient 4, termination analysis Week 9) of the same compound?
The AUC(0-t) was 1740 ng·h/mL.

And the AUC(0-t) ([2]; Patient 5, termination analysis Week 9)?
The AUC(0-t) was 1650 ng·h/mL.

And the AUC(0-t) ([2]; Patient 6, termination analysis Week 9)?
The AUC(0-t) was 2400 ng·h/mL.

What about the AUC(0-t) ([2]; Patient 7, termination analysis Week 9) of the same compound?
The AUC(0-t) was 1040 ng·h/mL.

And the AUC(0-t) ([2]; Patient 8, termination analysis Week 9)?
The AUC(0-t) was 1340 ng·h/mL.

What about the Cmax ([2]; Cmax (M), Patient 1, maintenance analysis Week 4) of the same compound?
The Cmax was 3.6e-06 M.

And the Cmax ([2]; Cmax (M), Patient 2, maintenance analysis Week 4)?
The Cmax was 1.5e-06 M.

And the Cmax ([2]; Cmax (M), Patient 3, maintenance analysis Week 4)?
Its Cmax is 3.7e-06 M.

What about the Cmax ([2]; Cmax (M), Patient 4, maintenance analysis Week 4) of the same compound?
Its Cmax is 7e-06 M.

And the Cmax ([2]; Cmax (M), Patient 5, maintenance analysis Week 4)?
Its Cmax is 4.7e-06 M.

And the Cmax ([2]; Cmax (M), Patient 6, maintenance analysis Week 4)?
The Cmax was 4e-06 M.

And the Cmax ([2]; Cmax (M), Patient 7, maintenance analysis Week 4)?
Its Cmax is 1.2e-06 M.

And the Cmax ([2]; Cmax (M), Patient 8, maintenance analysis Week 4)?
The Cmax was 3.3e-06 M.

And the Cmax ([2]; Cmax (T), Patient 1, termination analysis Week 9)?
Its Cmax is 3.2e-06 M.

And the Cmax ([2]; Cmax (T), Patient 2, termination analysis Week 9)?
Its Cmax is 3.9e-06 M.

What about the Cmax ([2]; Cmax (T), Patient 3, termination analysis Week 9) of the same compound?
The Cmax was 3.9e-06 M.

What about the Cmax ([2]; Cmax (T), Patient 4, termination analysis Week 9) of the same compound?
Its Cmax is 3.9e-06 M.

And the Cmax ([2]; Cmax (T), Patient 5, termination analysis Week 9)?
The Cmax was 3.7e-06 M.

And the Cmax ([2]; Cmax (T), Patient 6, termination analysis Week 9)?
Its Cmax is 3.2e-06 M.

What about the Cmax ([2]; Cmax (T), Patient 7, termination analysis Week 9) of the same compound?
The Cmax was 2.1e-06 M.

What about the Cmax ([2]; Cmax (T), Patient 8, termination analysis Week 9) of the same compound?
The Cmax was 2.6e-06 M.

And the IC50 (MAO-B [3])?
The IC50 was 599 µM.
